The record followed here is the pKa sets of Baltruschat and Czodrowski (2020).

Under “basic group”, `Nc1ccc(S(=O)(=O)Nc2cnccn2)cc1` gave a pKa of 1.77. With `NC(=O)C([NH3+])Cc1c[nH]cn1` (configuration not stated), the pKa (basic group) is 5.78. As to `CCOC(=O)N1CCNCC1`, the pKa (basic group) was found to be 8.28. On to `CN1CC[C@]23c4c5ccc(O)c4O[C@H]2[C@@H](O)C=C[C@H]3[C@H]1[C@H]5O`, for which the pKa is 9.06 (acidic group) and 7.13 (basic group). Where the note is “basic group”, `Cc1cnc2c(ccc3cccnc32)c1` yielded a pKa of 5. In the case of `[NH3+][C@@H](Cc1c[nH]c[nH+]1)C(=O)N[C@@H](Cc1c[nH]c[nH+]1)C(=O)O`, the pKa (acidic group) came to 2.25. `CCCNC(C)C`: the pKa (basic group) stood at 11. With `COc1ccccc1-c1ccccc1O`, the pKa (acidic group) stood at 10.4. The compound `Oc1ccccc1CN1CCCNCCC[NH2+]CCC1` returned a pKa (basic group) of 6.64. In turn, `N#CC(C#N)=NNc1ccccc1O` displayed a pKa (acidic group) of 6.1. The same measure, in the same setting: the same measure for `CC(C)[C@H]1C[NH2+][C@H](C(=O)O)[C@H]1CC(=O)O`: 2.12; for `CC(C)c1nnn[nH]1`: 5.55.

As for `CNCCCCc1ccccc1`, under “basic group”, the pKa turned out to be 10.8. For `S=CNc1cccc(Cl)c1`, the pKa (acidic group) came out at 10.8. `C/N=C1/CCCCC1C` (configuration not stated): the pKa (basic group) amounted to 9.47. `CCCCOC(=O)c1ccc[n+](O)c1` registered a pKa (acidic group) of 0.03.

Compound `CN(C)CCN(C)C` had a pKa (basic group) of 9.15. In turn, `C/C(=N\O)c1ccccc1` displayed a pKa (acidic group) of 11.3. Regarding `O=[N+]([O-])c1ccc(S(=O)(=O)NCc2ccccc2)cc1`, where the note is “acidic group”, the pKa was 10.1. Consider `C/C=C(\C(=O)O)c1ccc([N+](=O)[O-])cc1`, for which the pKa (acidic group) stood at 5.

Take `Cn1c(N)nc2nc[nH]c2c1=O`: the pKa by setting is: (acidic group) 10.4; (basic group) 3.2. Under “basic group”, `Cn1cncc1C[C@H](NC(=O)CC[NH3+])C(=O)[O-]` gave a pKa of 7.08. For `Nc1ccc(S(=O)(=O)Nc2ccc(N)nc2)cc1`, the pKa is, setting by setting: (acidic group) 8.82; (basic group) 4.19.

`Cc1cc(C)c2ccccc2n1`: the pKa (basic group) turned out to be 5.11. Turning to `NC(=O)CCCCc1ccccn1`, the pKa (basic group) turned out to be 5.73. Consider `O=C(/C(=N/O)c1ccccc1)c1ccccc1`, for which the pKa (acidic group) stood at 8.8. In turn, `O=[N+]([O-])c1ccc2c(c1)C([P+](c1ccccc1)(c1ccccc1)c1ccccc1)c1ccccc1-2.[Br-]` (configuration not stated) gave a pKa (acidic group) of 5.36. For `Nc1ccccc1[N+](=O)[O-]`, the pKa is 13.4 (acidic group) and -0.24 (basic group). For the compound `Cn1cnc2c(N=O)c(O)ccc21`, the pKa came out at 6.76 (acidic group) and 3.31 (basic group). In the case of `Oc1ccccc1-c1ccccn1`, the pKa reads like this: (acidic group) 10.6; (basic group) 4.2. Compound `CC1(C)OC(=O)C[C@H]2[C@@H](C(=O)[O-])NC[C@H]21` displayed a pKa (basic group) of 9. Take `CC1=NCCCCN1`: the pKa (basic group) is 12.7. As for `CN(C)CCOC(C)(c1ccccc1)c1ccccn1` (configuration not stated), for the setting “basic group”, the pKa was 9.2. On to `C=C(C)[C@@H]1C[NH2+][C@H](C(=O)O)[C@@H]1CC(=O)O`, for which the pKa (acidic group) turned out to be 2.09. As for `CCC(C)Nc1ccccc1` (configuration not stated), the pKa (basic group) is 5.47. `NC(=O)CN(CCN(CC(N)=O)Cc1ccccc1O)Cc1ccccc1[O-]` showed a pKa (acidic group) of 11. Turning to `CC1CCN(C(C)C=C(c2cccs2)c2cccs2)CC1` (configuration not stated), the pKa (basic group) amounted to 8.2.

In the case of `CC(=O)c1cccc(O)c1`, where the note is “acidic group”, the pKa is 9.12.

The compound `NS(=O)(=O)c1nc2ccccc2s1` registered a pKa (acidic group) of 7.8. In turn, `Oc1ccnc([Se-])[nH+]1` showed a pKa (acidic group) of 7.18. As to `O=C(O)c1cccc2cc3ccccc3cc12`, the pKa (acidic group) worked out at 3.7.

Compound `CCC(C)N(C)c1ccccc1` (configuration not stated) gave a pKa (basic group) of 6.03. `COc1cnc(N)s1`: the pKa (acidic group) was 4.98. `Cc1cc[nH]c1C(=O)O` displayed a pKa (acidic group) of 5.1. As for `O=[N+]([O-])c1ccc(Nc2ccccc2)cc1`, the pKa (basic group) was -2.5. Regarding `CN(C)C(=O)n1nc(C(C)(C)C)nc1SCC(=O)O`, the pKa (acidic group) was 3.49.

In turn, `CCN(CC)S(=O)(=O)c1ccccc1C(=O)O` gave a pKa (acidic group) of 2.96. Under “basic group”, `NNc1nncc2ccccc12` showed a pKa of 7.25. For `[O-]c1ccncn1`, the pKa (basic group) was found to be 8.59. Turning to `C[NH+](C)CCCCCNc1c2ccccc2nc2cccc([N+](=O)[O-])c12`, the pKa (basic group) is 7.4. `CSc1ccc(N)cc1Cl` showed a pKa (basic group) of 3.38. As to `Clc1ccc(C2NCCS2)cc1` (configuration not stated), the pKa (basic group) turned out to be 5.01. The compound `O=C(O)Cc1ccccc1` gave a pKa (acidic group) of 4.27. The compound `C=CCC1(CC=C)SC(=O)NC1=O` displayed a pKa (acidic group) of 6.1. Still for that read-out and setting: the same measure for `O=Cc1cc([N+](=O)[O-])cc(Br)c1O`: 3.48.

Under “basic group”, `CCN1CCCC1C` (configuration not stated) returned a pKa of 10.6. In turn, `C[N+](C)(C)CCCc1cccc(O)c1` registered a pKa (acidic group) of 9.64. `CC[NH+](CC)Cc1cc(Br)ccc1O` had a pKa (acidic group) of 7.7. The compound `CCOCCn1c(N2CCC[NH+](CCCCn3cc(C(=O)O)cn3)CC2)[nH+]c2ccccc21` registered a pKa (acidic group) of 3.7. Regarding `CCNC(O)=S`, the pKa (acidic group) was found to be 0.92. Turning to `[NH3+]CCCCCCC#CC#CCCC(=O)O`, the pKa (acidic group) stood at 4.21.

As for `CN1C[C@H](CO)C[C@H]2c3cccc4[nH]cc(c34)C[C@@H]21`, the pKa (basic group) was determined as 8.84. `[NH3+]CCN1CCOCC1` registered a pKa (basic group) of 4.84. On to `NS(=O)(=O)c1ccccc1C(=O)O`, for which, under “basic group”, the pKa amounted to 3.14. Turning to `CC(=O)c1cccc(C(=O)O)c1`, where the note is “acidic group”, the pKa amounted to 3.84. In turn, `Clc1ncnc2nc[nH]c12` displayed a pKa (acidic group) of 7.75.
